Results on 1 compound are retold here after article PMC8287944, “5-Fluorouracil blocks quorum-sensing of biofilm-embedded methicillin-resistant Staphylococcus aureus in mice” (Nucleic Acids Research, 2021).

SMILES strings stand for the structures.

Experiment [1] deals with MRSA ATCC 43300. The experiment in a line: Biofilm formation (Crystal Violet). Type of experiment: cell-based, Staphylococcus aureus. To be noted: 0.1 μM 5-FU, 24 h. The method, then:
To quantify the formation of bacterial biofilms, bacteria were grown for 24 h in the presence of potential inhibitors in 96-well polystyrene plates. The plates were then washed three times with distilled water. Remaining cells were stained with 0.1% Crystal Violet solution (5% methanol, 5% isopropanol) and further washed to remove excess dye. Crystal Violet was redissolved in 20% acetic acid solution and the absorbance of the solution was measured at 600 nm.
(§1) Figure 4. Bioactivity of 5-FU against MRSA ATCC 43300. (A) Quorum sensing-associated AI-2 activity of MRSA 43300 grown for 3 h with different 5-FU concentrations. (B) Effect of different 5-FU concentrations on MRSA 43300 growth. (C) Interference with biofilm formation. (D) Effect on adherent MRSA 43300. Data points represent three biological replicates expressed as mean ± SD (**P < 0.01; ***P < 0.001; ****P < 0.0001).

For experiment [2], the system named is AI-2 production by HEK-293AI2 cells expressing MTAN and LuxS. Nature of the experiment: HEK-293AI2 / V. harveyi (MM32) AI-2 detection platform (AI-2 production by engineered human cells). Type of experiment: cell-based, human cells; MTAN and LuxS derived from E. coli. To be noted: Homo sapiens, 24 h, HEK-293AI2 cells exposed 24 h; AI-2 in supernatant read by V. harveyi MM32 bioluminescence. The procedure:
LuxS (MF688636) and MTAN (MF688635) transgenes derived from E. coli were codon-optimized for stable expression in mammalian cells. For the generation of double stable HEK-293-derived cell line HEK-293AI2 transgenic for simultaneous constitutive PhEFIα-driven MTAN and PhCMV-driven LuxS-eYFP expression, 250,000 cells were first transfected with 2000 ng of pFS168 (PhEFIα-MTAN-pA) and selected in culture medium containing 20 μg/ml blasticidin (cat. no. ant-bl-1; InvivoGen, San Diego, CA, USA) for two weeks. […] After 17 days of selection in medium containing 200 μg/ml (w/v) zeocin (cat. no. ant-zn-1; Invivogen, San Diego, CA, USA) and 20 μg/ml blasticidin, resistant monoclonal cells (HEK-293sFS26cx) were obtained by limiting dilution cloning and screened for AI-2 activity in their supernatants. […] The cell line was regularly tested for the absence of mycoplasma.
20 μl of HEK-293AI2 cells (10^4 cells per well) were resuspended in 20 μl Dulbecco's modified Eagle's medium (DMEM; Thermo Fisher, Basel, Switzerland, low glucose, without phenol red, cat. no. 11880–028) supplemented with 4 mM L-glutamine (Thermo Fisher, Basel, Switzerland, cat. no. 25030-024), 30 μg/ml kanamycin and 1% FCS and seeded into a poly-L-lysine-coated Black Greiner clear-bottom 384-well plate (cat. no. 3845; Corning, New York, USA) using a Multidrop Combi Reagent Dispenser (cat. no. 5840300; Thermo Fisher, Basel, Switzerland). Cells were incubated for 20 h and then 20 nL of individual compounds (stock solution in 5 mM in DMSO) or controls (stock solutions of novobiocin, 10 mM in DMSO; staurosporin, 20 mM in DMSO) were transferred with Echo 550 liquid handler (Labcyte, San Jose, CA, USA) into the plate.
Compound-treated cells were cultivated for 24 hours and the cell culture supernatants (10 μl) were transferred to dry black polystyrene 384-well plates (Corning, New York, USA, cat. no. 3571). The AI-2 activity was quantified by adding 40 μl per 384-well of V. harveyi MM32 AI-2 reporter strain, diluted 1:500 in AB-Medium from a stationary overnight culture grown in Luria Marine (LM)-medium containing 20 g of NaCl, 10 g of Bacto Tryptone (Difco Laboratories), and 5 g of yeast extract (BBL) ([25]). Plates were sealed with BREATHseal™ (cat. no. 7.676 050; Greiner Bio-One, Frickenhausen, Germany) and incubated for 4 h at 30°C and 200 rpm on a Multitron Pro shaker (Infors, Bottmingen, Switzerland). Bioluminescence was measured on an Envision 2104 Multilabel plate reader (Perkin Elmer, Waltham, USA) with 1 s integration time. […] The initial hit inclusion criteria were a toxicity score of less than 50% and an AI-2 activity reduction below the average of all compound activity three times the standard deviation (-49.39% of activity).
Figure 2. Cell-based primary screen for AI-2 biosynthesis inhibitors. (A) Detailed assay protocol of the primary screen using engineered mammalian cells to identify inhibitors of quorum sensing. […] Aliquots of 10 μl of culture supernatants were transferred to black-bottomed assay plates and mixed with 40 μl of V. harveyi MM32 (AI-2 biosensor). AI-2-induced bioluminescence was measured 4 h later and normalized against the controls. In a secondary screen, the dose-response relationships of hit compounds are analyzed. To simultaneously assess effects on cell viability, compound-treated cells were supplemented with PrestoBlue and incubated for 1 h prior to resorufin fluorescence quantification. (B) Z’-evaluation of the AI-2 inhibitor assay.

Experiment [3] has as its system MRSA ATCC 43300. Nature of the experiment: MRSA 43300 growth. Type of experiment: cell-based, Staphylococcus aureus. To be noted: 0.1 μM 5-FU. The procedure: as §1
The test system of experiment [4] is E. coli. Nature of the experiment: E. coli quorum sensing / AI-2 activity in supernatant. Type of experiment: cell-based, Escherichia coli. The settings on record: Supplementary Figure S3. The method, then: The test strain E. coli RP437 was grown overnight in LB. Its optical density was measured on a Novaspec II photometer (Pharmacia, Freiburg, Germany) and the culture was diluted to a final OD600 of 0.1 the next morning. The bacteria were challenged with test compounds for 3 h, and then AI-2 activity in the culture supernatant was determined. Specifically, 90 μl of the AI-2 reporter strain V. harveyi (MM32), grown overnight in LM medium and then prediluted 1:500 in AB-medium containing 30 μg/ml kanamycin, was added to 10 μl of E. coli supernatant (10% v/v) in black-bottomed Fluotrac 200 96-well plates (Greiner Bio-One, Frickenhausen, Germany), which were shaken at 200 rpm, at 30°C. The AI-2 induced bioluminescence of MM32 was measured after 5 h. […]
Supplementary Figure 3 | Effect of hit candidates on Escherichia coli. […] AI-2-secreting E. coli (XL10-Gold) was grown for 3 h and AI-2 activity in the supernatant was quantified. […] Optical density (OD600) was measured after 24 h as a measure of cell growth. […] Then, planktonic cell growth (OD600) was measured and biofilm formation was quantified by means of crystal violet staining. (d) AI-2-secreting E. coli (RP437) was grown for 3 h in the presence of different compounds (10 µM), and then AI-2 activity in the supernatant was quantified. Optical density (OD600) was measured after 24 h.

Broadly, the IC50 is the concentration needed to halve the response being measured. Higher therefore signals weaker potency. Turning to `O=c1[nH]cc(F)c(=O)[nH]1` [5-Fluorouracil], the “Biofilm formation of MRSA” value in experiment [1] is recorded as “significantly decreased biofilm formation”. This compound also came in with an IC50 in experiment [2] of 460 nM. Also, the “Bacterial growth of MRSA” value in experiment [3] is reported as “significantly decreased bacterial growth”. The “Effect on E. coli quorum sensing” value in experiment [4] is on record as “interfered with E. coli quorum sensing”.
